Laboratory results published in paper PMC4626104, “Inhibition on Proteasome β1 Subunit Might Contribute to the Anti-Cancer Effects of Fangchinoline in Human Prostate Cancer Cells” (PLoS ONE, 2015).

How the values were obtained:
PC-3 cells [1] = test: Flow cytometric analysis of apoptosis (Annexin V/PI) in PC-3 cells; type: cell-based, human; conditions: 24 h
Description: (§1) The induction of cell cycle arrest and apoptosis by fangchinoline in PC-3 cells was observed by using flow cytometric analysis as described in our previous reports. Briefly, for flow cytometry analysis of cell cycle, cells were collected after treatment, washed with PBS and then fixed with 70% ethanol at 4°C for overnight. After PBS washes, cells were re-suspended in staining buffer (10 mg/mL RNase A and […] propidium iodide in cold PBS) for 30 min in dark at room temperature and then analyzed using FACSCalibur Flow Cytometer. For flow cytometric analysis of apoptosis, Alexa Fluor 488 Annexin V & PI /Dead cell Apoptosis Kit (Invitrogen) was used. Cells were collected after treatment, washed with PBS and then resuspended in binding buffer and then incubated with Annexin V-FITC and propidium iodide for 15 min in dark at room temperature. Then, flow cytometric analysis was conducted and data analysis was performed with CellQuest software.

[2] = target: T1, recombinant human proteasome β1 subunit (Homo sapiens, UniProt P28072); test: Enzyme activity of recombinant proteasome catalytic β1 subunit (Z-LLE-AMC); type: biochemical; conditions: 50 μM Z-LLE-AMC, 2 h incubation
T1 construct: His-Tag; made in house; host or cells: Escherichia coli
T1 sequence (P28072 1-239): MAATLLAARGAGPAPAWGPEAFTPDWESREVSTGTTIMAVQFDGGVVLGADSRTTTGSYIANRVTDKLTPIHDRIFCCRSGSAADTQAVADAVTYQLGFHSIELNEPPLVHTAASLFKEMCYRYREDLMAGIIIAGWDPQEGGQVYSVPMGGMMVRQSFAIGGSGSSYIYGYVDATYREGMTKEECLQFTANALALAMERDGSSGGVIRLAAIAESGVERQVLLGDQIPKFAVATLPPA
Description: Briefly, catalytic activity of the recombinant human proteasome β1 subunit was assayed by adding recombinant β1 subunit protein (30 μg) to 100 μL of proteasome activity assay buffer (10 mM Tris-HCL, pH 7.8, 5 mM adenosine triphosphate, 0.5 mM dithiothreitol and 5 mM MgCL2•6H2O) containing 50 μM Z-LLE-AMC in the presence of fangchinoline or tetrandrine at different concentrations or not. The hydrolase activity of the proteasome catalytic β1 subunit could release the fluorogenic AMC component from substrate Z-LLE-AMC and the AMC release was measured after 2 h incubation using a Microplate Reader Bio-Rad 550 with excitation and emission wavelengths of 360 and 465 nm, respectively.

PC-3 cells [3] = test: Flow cytometric analysis of cell cycle in PC-3 cells; type: cell-based, human; conditions: 24 h
Description: as §1

PC-3 tumor xenografts = test: PC-3 tumor xenograft experiments (tumor volume, TUNEL); type: in vivo, nude mice
Description: Male nude immunodeficient mice Balb/c-nu-nu, aged 4 weeks, were purchased from Shanghai Experimental Animal Center. All procedures involving animals were approved by the Institutional Animal Care and Use Committee of Shanghai Institute of Materia Medica, Chinese Academy of Sciences. On day 0, PC-3 cells (8×10^6 cells) suspended in 0.2 mL of serum-free RPMI 1640 were inoculated s.c. in the right flank of each mouse (six mice per group). 14 days after inoculation, mice were randomly divided into 3 groups and started injection with either vehicle control or fangchinoline at 25 mg/kg (ip., QD) or 50 mg/kg (ip., QD). Tumor sizes were measured every 4 days using calipers and their volumes were calculated using a standard formula: width^2×length/2. The relative tumor volume (RTV) was defined as the ratio of the tumor volume at a indicated time and the tumor volume at the start of drug treatment. Body weight was measured daily. On day 30 after inoculation, mice were sacrificed by CO2 inhalation and tumor xenografts were dissected. To visualize apoptosis in tumor xenografts, TUNEL labeling was conducted to detect apoptotic nuclei using In Situ Death Detection Kit (Roche Molecular Biochemicals). Briefly, tumor xenografts were fixed with 10% formalin solution at room temperature for 24 h and then embedded by paraffin. Specimens were heated for 1h by Water Bath-Slide Drier (LEICA H1 1220, German), incubated with dimethylbenzene for two times (8 min each) and then incubated with 100%, 95%, 90% and 85% ethanol for two times (3 min each). Specimens were then incubated with 0.1M Citrate buffer (pH 6.0) for microwave irradiation. After washing with PBS for two times (3 min each), slices were incubated with reaction buffer (from the In Situ Death Detection Kit) in a humid atmosphere at 37°C for 1 h. Slices were then washed with PBS three times (3 min each) to remove unincorporated fluorescein–deoxyuridine triphosphate. Nuclei were counterstained with 4,6-diamidino-2-phenylindole (DAPI) 1 μg/mL for 3 min and then washed with PBS for three times (3 min each). Images were captured using a 20X objective (Olympus BX51, Japan) on an epifluorescence microscope. Furthermore, the proteasome activities of tumor xenografts were assayed. Briefly, tumor xenografts were homogenerized in proteasome activity assay buffer using the FastPrep System (MP FastPrep-24, U.S.A), then centrifugation at 4°C for 30 min. The supernatants were then used for assay of proteasome activities using method as described above for analysis of cellular proteasome activities.

[4] = 25mg/kg ip. QD, day 14 after inoculation (start of treatment)
[5] = 25mg/kg ip. QD, day 17 after inoculation
[6] = 25mg/kg ip. QD, day 21 after inoculation
[7] = 25mg/kg ip. QD, day 24 after inoculation
[8] = 25mg/kg ip. QD, day 27 after inoculation
[9] = 25mg/kg ip. QD, day 30 after inoculation
[10] = 50mg/kg ip. QD, day 14 after inoculation (start of treatment)
[11] = 50mg/kg ip. QD, day 17 after inoculation
[12] = 50mg/kg ip. QD, day 21 after inoculation
[13] = 50mg/kg ip. QD, day 24 after inoculation
[14] = 50mg/kg ip. QD, day 27 after inoculation
[15] = 50mg/kg ip. QD, day 30 after inoculation

SMILES: COc1ccc2cc1Oc1ccc(cc1)C[C@H]1c3cc(c(OC)cc3CCN1C)Oc1c(O)c(OC)cc3c1[C@H](C2)N(C)CC3 [fangchinoline]
- Percentage (%) of apoptotic cells (Annexin^+/PI^+) (PC-3 cells [1]; 5 μM): 6.74±1.14 %
- Percentage (%) of apoptotic cells (Annexin^+/PI^+) (PC-3 cells [1]; 8 μM): 10.79±0.51 %
- Percentage (%) of apoptotic cells (Annexin^+/PI^+) (PC-3 cells [1]; 12 μM): 13.53±0.19 %
- Percentage (%) of apoptotic cells (Annexin^+/PI^+) (PC-3 cells [1]; 18 μM): 28.10±5.93 %
- Percentage (%) of apoptotic cells (Annexin^+/PI^+) (PC-3 cells [1]; 27 μM): 37.52±4.04 %
- Percentage (%) of apoptotic cells (Annexin^+/PI^+) (PC-3 cells [1]; 40 μM): 49.77±2.23 %
- Inhibition of enzyme activity of recombinant proteasome β1 subunit [2]: dose-dependently inhibited
- Percentage (%) of cells in G0/G1 phase (PC-3 cells [3]; 5 μM): 60.17±1.49%
- Percentage (%) of cells in G2/M phase (PC-3 cells [3]; 5 μM): 11.21±2.45 %
- Percentage (%) of cells in S phase (PC-3 cells [3]; 5 μM): 28.62±2.31%
- Percentage (%) of cells in G0/G1 phase (PC-3 cells [3]; 8 μM): 64.25±1.57 %
- Percentage (%) of cells in G2/M phase (PC-3 cells [3]; 8 μM): 11.99±2.23 %
- Percentage (%) of cells in S phase (PC-3 cells [3]; 8 μM): 23.76±2.77%
- Percentage (%) of cells in G0/G1 phase (PC-3 cells [3]; 12 μM): 63.03±0.73 %
- Percentage (%) of cells in G2/M phase (PC-3 cells [3]; 12 μM): 11.59±1.99 %
- Percentage (%) of cells in S phase (PC-3 cells [3]; 12 μM): 25.37±1.75 %
- Percentage (%) of cells in G0/G1 phase (PC-3 cells [3]; 18 μM): 67.63±3.34 %
- Percentage (%) of cells in G2/M phase (PC-3 cells [3]; 18 μM): 8.88±2.91%
- Percentage (%) of cells in S phase (PC-3 cells [3]; 18 μM): 23.48±2.14 %
- Percentage (%) of cells in G0/G1 phase (PC-3 cells [3]; 27 μM): 75.16±1.95 %
- Percentage (%) of cells in G2/M phase (PC-3 cells [3]; 27 μM): 8.65±1.81%
- Percentage (%) of cells in S phase (PC-3 cells [3]; 27 μM): 16.19±0.63 %
- Percentage (%) of cells in G0/G1 phase (PC-3 cells [3]; 40 μM): 80.14±1.55 %
- Percentage (%) of cells in G2/M phase (PC-3 cells [3]; 40 μM): 7.99±1.43%
- Percentage (%) of cells in S phase (PC-3 cells [3]; 40 μM): 11.88±0.56 %
- Tumor volume (Maximum) (PC-3 tumor xenografts; [4]): 519.59 mm^3
- Tumor volume (Mean ± SEM) (PC-3 tumor xenografts; [4]): 370.0±42.37 mm^3
- Tumor volume (Maximum) (PC-3 tumor xenografts; [5]): 512.11 mm^3
- Tumor volume (Mean ± SEM) (PC-3 tumor xenografts; [5]): 356.5±51.63 mm^3
- Tumor volume (Maximum) (PC-3 tumor xenografts; [6]): 812.68 mm^3
- Tumor volume (Mean ± SEM) (PC-3 tumor xenografts; [6]): 577.7±53.05 mm^3
- Tumor volume (Maximum) (PC-3 tumor xenografts; [7]): 1147.52 mm^3
- Tumor volume (Mean ± SEM) (PC-3 tumor xenografts; [7]): 955.0±78.87 mm^3
- Tumor volume (Maximum) (PC-3 tumor xenografts; [8]): 1439.56 mm^3
- Tumor volume (Mean ± SEM) (PC-3 tumor xenografts; [8]): 1248±50.73 mm^3
- Tumor volume (Maximum) (PC-3 tumor xenografts; [9]): 1655.05 mm^3
- Tumor volume (Mean ± SEM) (PC-3 tumor xenografts; [9]): 1413±61.89 mm^3
- Tumor volume (Maximum) (PC-3 tumor xenografts; [10]): 356.43 mm^3
- Tumor volume (Mean ± SEM) (PC-3 tumor xenografts; [10]): 348.4±3.470 mm^3
- Tumor volume (Maximum) (PC-3 tumor xenografts; [11]): 402.14 mm^3
- Tumor volume (Mean ± SEM) (PC-3 tumor xenografts; [11]): 321.3±21.46 mm^3
- Tumor volume (Maximum) (PC-3 tumor xenografts; [12]): 462.36 mm^3
- Tumor volume (Mean ± SEM) (PC-3 tumor xenografts; [12]): 374.8±37.58 mm^3
- Tumor volume (Maximum) (PC-3 tumor xenografts; [13]): 812.28 mm^3
- Tumor volume (Mean ± SEM) (PC-3 tumor xenografts; [13]): 593.8±593.8 mm^3
- Tumor volume (Maximum) (PC-3 tumor xenografts; [14]): 1008.40 mm^3
- Tumor volume (Mean ± SEM) (PC-3 tumor xenografts; [14]): 857.0±41.00 mm^3
- Tumor volume (Maximum) (PC-3 tumor xenografts; [15]): 1263.09 mm^3
- Tumor volume (Mean ± SEM) (PC-3 tumor xenografts; [15]): 1120±66.28 mm^3
- Growth of PC-3 xenografts (relative tumor volume) (PC-3 tumor xenografts; 25 and 50 mg/kg ip. QD): dose-dependently inhibit
- Apoptosis in PC-3 xenografts (TUNEL labeling) (PC-3 tumor xenografts; animals treated with fangchinoline): apoptosis was induced
